Test results taken from patent US20230183303A1, “Therapeutic Potential of Peptides from the "Netrin-Like" Domain of the FRZB Protein” (Université de Lorraine, priority 2020, published 2023).
Entries after “also recorded” stand apart in the source; their conditions may differ.

Assays:
ATDC5 micromasses [1] = experiment: Glycosaminoglycan/proteoglycan quantification (Alcian blue staining) in ATDC5 micromasses; type: cell-based, mouse; settings: for proteoglycans deposition in the extracellular matrix (Alcian blue, absorbance 650 nm): 300 ng/ml, 14 days, vs control cells
Procedure: (§1) Mouse chondrogenic ATDC5 cells (cartilage-specific chondrogenic strain) were cultured until confluent in maintenance medium containing 1:1 Dulbecco's modified Eagle's medium (DMEM): Ham's F-12 mix (Gibco) supplemented with 1% antibiotic (AB, Penicillin-Streptomycin, Gibco), 5% fetal bovine serum (FBS) (Gibco) and enriched with […] human transferrin (Sigma) and 30 nM sodium selenite (Sigma). Cells were trypsinized, washed and resuspended at 2.10^7 cells/mL in a chondrogenic medium made of maintenance medium enriched by 1× of ITS premix (resulting in 10 μg/mL insulin, 10 μg/mL human transferrin and 30 nM sodium selenite) (Life technologies). One droplet of cell suspension (10 μL) was placed at the center of each well of a 24-well plate. Cells were allowed to adhere for 2 h at 37° C., followed by addition of 500 μL chondrogenic medium supplemented. […] After 14 days, induction of hypertrophic differentiation and mineralization was induced by the mineralization medium made of α-MEM medium (Gibco) containing 1% AB, 5% FBS, 5 μg/ml human transferrin, 1× of ITS premix, 50 μg/ml ascorbic acid-2-phosphate (AA) (Sigma) and 10 mM β-glycerophosphate (BGP) (Sigma). […] Micromasses were collected at time points 1, 7, 14 21 and 28 days. Each time point was processed in three technical replicates. The medium was changed every other day. […] The genes of interest were articular chondrocyte markers (aggrecan, type 2 collagen (col2a1)), YAP/TAZ target genes (ctgf, ankrd) and pro-catabolic enzymes involved in the pathophysiology of OA (mmp3, mmp13).
Micromasses were washed with PBS and fixed with 95% ice-cold ethanol for 30 min at 4° C. for staining. After washing with distilled water, micromasses were stained with Alcian Blue (0.1% Alcian Blue 8GX, (Sigma)), washed three times with distilled water to remove unbound staining and air-dried.

ATDC5 micromasses [2] = experiment: qRT-PCR relative expression of genes of interest in ATDC5 micromass culture (chondrogenesis); type: cell-based, mouse; settings: for MMP3 expression / YAP/TAZ target genes (CTGF) expression / articular chondrocyte extracellular matrix genes (type II collagen and aggrecan) expression: 300 ng/ml, differentiated 14 days with ITS, D14 vs CTL
Procedure: as §1
(§2) Total RNA was isolated using the Nucleospin RNA II kit (Macherey-Nagel) and reverse-transcribed using the MMLV reverse transcriptase (Thermo Fisher Scientific) following the manufacturers' instructions. The iTaq SYBR green qPCR master mix (BioRad) was used to assess the mRNA expression of target genes of interest. Primer sequences can be provided upon request. The following PCR conditions were used: 1 minute at 95° C., 40 cycles of 15 sec of denaturation at 95° C., followed by 1 minute of annealing-elongation at 60° C. Melting curve analysis was performed to determine the amplification of the specific product. Results were expressed using the comparative threshold method and were normalized to housekeeping gene PPIA (Peptidylprolyl Isomerase A) mRNA level for ATDC5 cells and MACs, or normalized to housekeeping gene S29 (ribosomal protein S29) mRNA level for MC3T3-E1 cells. The Via7 real-time PCR system (Thermo Fisher Scientific) was used for qRT-PCR measurements.
(§3) ATDC5 cells were cultured as micromasses and differentiated during 14 days using ITS as mentioned previously. […] RNA was isolated and qPCR were performed for different target genes, i.e. type II collagen and aggrecan (articular chondrocyte extracellular matrix), CTGF (YAP/TAZ target genes, indicators of the pathway activity) and MMP3 (cartilage degrading enzyme increased during osteoarthritis) (FIG. 15). Alcian blue staining was performed on the micromasses cultures, and biochemical quantitation was performed as previously described (FIG. 16).
as §3, with “gene, indicator” for “genes, indicators”, “17).” for “15).”, “18).” for “16).”

[3] = test system: mouse articular chondrocytes; experiment: qRT-PCR relative expression of genes of interest in mouse articular chondrocytes; type: cell-based; settings: 300 ng/mL; 12 h of stimulation
Procedure: Mouse articular chondrocyte (MACs) were isolated from femoral heads by enzymatic digestion of whole femoral head caps. Samples were washed three times in 1% AB/phosphate buffered saline (PBS) and incubated with 2 mg/ml pronase (Roche)/DMEM-F12 at 37° C. for 1 h at slow rotation 100 rpm followed by a 3 h incubation with 1.5 mg/ml collagenase B (Roche)/DMEM-F12 at 37° C. Cells were seeded at 1×10^6 cells/[…], and cultured for 7 to 14 days in growth medium DMEM-F12, containing 1% AB (Gibco), 10% FBS (Gibco) and 5% L-glutamine (Thermoscientific). Passage 1 cells were utilized for the experiments. The culture supernatants were then harvested in order to perform MMP13 enzymatic activity assay. The evaluation of the expression of genes of interest included articular chondrocyte markers (aggrecan, type 2 collagen (col2a1)), YAP/TAZ target genes (ankrd) and pro-catabolic enzyme involved in the pathophysiology of OA (mmp3).
as §2

CamKII pathway = experiment: Western blot of CamKII pathway activation in ATDC5 micromasses; type: cell-based, mouse; settings: 300 ng/mL; day 21 and 28
Procedure: (§4) Mouse chondrogenic ATDC5 cells (cartilage-specific chondrogenic strain) were cultured until confluent in maintenance medium containing 1:1 Dulbecco's modified Eagle's medium (DMEM): Ham's F-12 mix (Gibco) supplemented with 1% antibiotic (AB, Penicillin-Streptomycin, Gibco), 5% fetal bovine serum (FBS) (Gibco) and enriched with […] human transferrin (Sigma) and 30 nM sodium selenite (Sigma). Cells were trypsinized, washed and resuspended at 2.10^7 cells/mL in a chondrogenic medium made of maintenance medium enriched by 1× of ITS premix (resulting in 10 μg/mL insulin, 10 μg/mL human transferrin and 30 nM sodium selenite) (Life technologies). One droplet of cell suspension (10 μL) was placed at the center of each well of a 24-well plate. Cells were allowed to adhere for 2 h at 37° C., followed by addition of 500 μL chondrogenic medium supplemented. […] After 14 days, induction of hypertrophic differentiation and mineralization was induced by the mineralization medium made of α-MEM medium (Gibco) containing 1% AB, 5% FBS, 5 μg/ml human transferrin, 1× of ITS premix, 50 μg/ml ascorbic acid-2-phosphate (AA) (Sigma) and 10 mM β-glycerophosphate (BGP) (Sigma). […] Micromasses were collected at time points 1, 7, 14 21 and 28 days. Each time point was processed in three technical replicates. The medium was changed every other day. […]

Wnt/β-catenin pathway = experiment: Western blot of Wnt/β-catenin pathway activation in ATDC5 micromasses; type: cell-based, mouse; settings: 300 ng/mL; day 21 and 28
Procedure: as §4

[4] = test system: 7×TCF/LEF response elements (Super 8×TOPFlash reporter); experiment: Promoter activation assay, Super 8×TOPFlash luciferase reporter in ATDC5 cells stimulated with Wnt3a; type: cell-based, mouse; settings: peptide at 300 ng/ml; 10 or 100 ng/mL recombinant Wnt3a; 24 h
Procedure: Results were normalized by-cotransfecting each of the above plasmid with the tyrosine kinase-renilla luciferase plasmid (Promega). Transfections were carried out using the Dharmafect kb transfection reagent (Fisher Scientific). Briefly, reporter plasmids and transfection reagent were diluted in serum-free medium, and then the diluted Dharmafect kb was added to the plasmids for an incubation time of 10 minutes at room temperature. During that time, cells were rinsed with PBS and were placed in fresh maintenance medium. When incubation was over, the mixture of transfection reagent-plasmids was dispensed in each well. Stimulations (with Wnt3a and/or PEP16 and/or PEP16bis) were carried out the next day.

mouse model of OA = mouse model of OA (Zhang et al., 2020); cited from earlier work
MC3T3-E1 cells = experiment: Quantification of mineralization (Alizarin Red) in MC3T3-E1 cells; type: cell-based, mouse; settings: PEP12 at 300 and 1000 ng/ml; 21 days; absorbance 405 nm
Procedure: Each time point was processed in three technical replicates. The medium was changed every two days.
Cells were washed with PBS and fixed with 95% ice-cold ethanol for 30 min at 4° C. for staining. After washing with distilled water, cells were stained with Alizarin Red staining (1% Alizarin Red S (Sigma)), washed three times with distilled water to remove unbound staining and air-dried. Quantification of the staining was performed by dissolving the mineral content in 800 μl of 10% acetic acid for 30 minutes. Then, the wells were scraped, the content of each well was harvested in a separate tube and vortexed for 30 seconds. Each tube was heated at 85° C. for 10 minutes, then put on ice for 5 minutes. Finally, tubes were centriguated at 13000 rpm for 15 minutes, the liquid phase was harvested and mixed with 100 μl of 10% ammonium hydroxide. Absorbance was measured at 405 nm with a spectrophotometer (Varioskan Flash, Thermo Fisher Scientific).
The mineralization level was evaluated by a biochemical assay as previously described after 21 days of differentiation culture. Results are representative of 3 experiments.

alkaline phosphatase = settings: 300 ng/ml, 1000 ng/ml; day 1 and day 21; vs CTL
Procedure: MC3T3-E1 cells were differentiated during 21 days as mentioned previously. […] Treated cells were compared to cells without any peptide stimulation (CTL).
We also assessed the specific alkaline phosphatase activity (μmol de para-nitrophenol/min/mg of protein). To that goal, we lysed the cells using 300 μL of a buffer containing 0.2 M Tris-Base, 1.6 mM MgCl2 pH 8.1 and 1% Triton X-100. Samples were then placed into tubes and put on ice for 30 min. During this time, we alternated periods of 30 sec vortex and 5 min on ice. Then, samples were sonicated, and centrifugated for 15 min at 13 000 g, 4° C. Supernatant was collected, and total protein concentration was evaluated using bicinchoninic acid assay.
Alkaline phosphatase activity was measured by placing the harvested supernatants in para-nitrophenyl phosphate (pNPP) solution. The alkaline phosphatase will cleave this substrate and generate para-nitrophenol (pNP).
A solution of 4 mg/mL of pNPP is prepared in buffer A (0.1 M glycine pH 10.5, 0.11% (m/v) Zinc acetate and 0.011% magnesium chloride (m/v)). […]
Absorbance is read at 410 nm on a Varioskan Flash apparatus. Alkaline phosphatase activity is calculated based on the standard curve (equation A410=a×quantity(ρNP)+b) with the following formula: activity=((A(410 nm)−b)×reaction volume)/(a×sample volume×reaction time)

[5] = 300 ng/mL, day 1, 21, 28, vs non-treated control

DRAGKKVKRWDMKARH (PEP16bis) [mutant of PEP16, L in position 3 and 14 changed to A]
glycosaminoglycans quantification (accumulation in the extracellular matrix) (ATDC5 micromasses [1]; 300 ng/mL, Alcian blue at day 28, absorbance 650 nm): significantly increased the accumulation of glycosaminoglycans
expression of Ctgf, a target gene of the Hippo/YAP/TAZ pathway (ATDC5 micromasses [2]; [5]): efficiently reduced the expression
relative expression level of aggrecan (ATDC5 micromasses [2]; [5]): favoured the induction of the expression
relative expression level of col2a1 (type 2 collagen) (ATDC5 micromasses [2]; [5]): favoured the induction of the expression
relative expression level of mmp3 (ATDC5 micromasses [2]; [5]): efficiently reduced the expression
relative expression level of mmp13 (ATDC5 micromasses [2]; [5]): efficiently reduced the expression
expression of Ankrd, a target gene of the Hippo/YAP/TAZ pathway [3]: capable of reducing the expression
CamKII pathway activation (P-CamKII over total) (CamKII pathway): increased the activation of the CamKII pathway
Wnt/β-catenin pathway activation (active protein form over total protein form) (Wnt/β-catenin pathway): reduced in the activation of the Wnt/β-catenin pathway
activity of the canonical Wnt pathway in the Super TOPFlash luciferase reporter system (Firefly/renilla ratio) [4]: very similar properties (biological activity) to the initial sequence PEP16; also recorded: significantly reduce the activity

DRIGKKVKRWDMKIRH (PEP i) [PEP16 where L in position 3 and 14 were changed to an Isoleucine]
proteoglycans deposition in the extracellular matrix (Alcian blue, absorbance 650 nm) (ATDC5 micromasses [1]): significantly increase the proteoglycans deposition
MMP3 expression (ATDC5 micromasses [2]): significant decrease
YAP/TAZ target genes (CTGF) expression (ATDC5 micromasses [2]): significant decrease
articular chondrocyte extracellular matrix genes (type II collagen and aggrecan) expression (ATDC5 micromasses [2]): significant increase

DRSGKKVKRWDMKSRH (PEP s) [PEP16 where L in position 3 and 14 were changed to a Serine]
proteoglycans deposition in the extracellular matrix (Alcian blue, absorbance 650 nm) (ATDC5 micromasses [1]): significantly increase the proteoglycans deposition
MMP3 expression (ATDC5 micromasses [2]): significant decrease
YAP/TAZ target genes (CTGF) expression (ATDC5 micromasses [2]): significant decrease
articular chondrocyte extracellular matrix genes (type II collagen and aggrecan) expression (ATDC5 micromasses [2]): significant increase

Verteporfin
cartilage homeostasis (mouse model of OA): allowed preserving the cartilage homeostasis

ATQKTYFRNNYN (PEP12)
extracellular matrix mineralization (biochemical quantitation) (MC3T3-E1 cells): not able to increase extracellular matrix mineralization
specific alkaline phosphatase activity (alkaline phosphatase): not able to increase the alkaline phosphatase activity
